Measured values published in US12569464B2, “Protein-protein interaction inducing technology” (Arvinas Operations, Inc., priority 2016, dated 2026).
Read-outs that look alike come from different tables or passages of the source.

Key:
Androgen Receptor = target: T1, Androgen Receptor (Homo sapiens, UniProt P10275); assay: Cell-based ligand (R1881) displacement assay, binary binding to AR; settings: read-out: binary binding potency IC50^AR in cells
T1 construct: expressed in transfected cells; host or cells: HEK293
T1 sequence (P10275 1-920): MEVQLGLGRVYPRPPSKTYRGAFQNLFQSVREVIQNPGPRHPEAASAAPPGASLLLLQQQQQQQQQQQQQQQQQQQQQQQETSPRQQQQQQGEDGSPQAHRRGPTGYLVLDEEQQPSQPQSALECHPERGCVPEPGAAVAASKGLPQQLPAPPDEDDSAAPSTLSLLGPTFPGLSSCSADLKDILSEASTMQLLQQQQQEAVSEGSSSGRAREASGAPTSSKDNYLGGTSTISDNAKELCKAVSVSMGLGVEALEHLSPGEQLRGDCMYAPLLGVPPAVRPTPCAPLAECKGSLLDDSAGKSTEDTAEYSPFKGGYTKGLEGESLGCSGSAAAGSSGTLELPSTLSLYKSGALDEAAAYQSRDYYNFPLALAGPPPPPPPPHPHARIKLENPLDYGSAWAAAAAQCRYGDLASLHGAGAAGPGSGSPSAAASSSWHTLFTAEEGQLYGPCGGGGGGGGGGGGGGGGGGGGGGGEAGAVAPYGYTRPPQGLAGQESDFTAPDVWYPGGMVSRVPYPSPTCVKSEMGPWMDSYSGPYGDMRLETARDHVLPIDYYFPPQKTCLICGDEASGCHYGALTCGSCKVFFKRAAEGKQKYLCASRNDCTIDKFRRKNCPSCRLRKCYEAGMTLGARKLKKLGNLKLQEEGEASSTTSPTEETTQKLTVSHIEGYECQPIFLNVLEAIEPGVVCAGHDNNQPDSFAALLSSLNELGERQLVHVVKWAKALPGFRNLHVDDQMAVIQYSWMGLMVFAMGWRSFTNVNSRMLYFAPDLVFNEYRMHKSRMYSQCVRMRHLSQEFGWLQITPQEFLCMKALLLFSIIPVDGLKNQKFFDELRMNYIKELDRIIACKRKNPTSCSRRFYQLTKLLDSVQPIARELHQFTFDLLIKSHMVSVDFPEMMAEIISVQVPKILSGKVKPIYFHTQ
Method: It is composed of an AR-binding warhead which is connected to a VHL-binding warhead by a linear connector. […] MD simulation of a ternary system composed of AR ligand-binding domain, a ligand and the complex of VHL with elongin B (EB) and elongin C (EC) in the presence of explicit water was performed. The ligand in the simulation is a close analog of the ligand L above and only differs from the ligand L above by having a methyl substitution at the 4-position of the thiazole group.
(§1) The connector linking the AR-binding warhead and the VHL-binding warhead was systematically probed from 4 to 23 atoms. The AR degradation potency DC50 and the maximum percentage of degradation Dmax of AR in LNCaP cells were measured for each of these compounds. […] The binary binding potency with respect to AR was also measured for some of the compounds by the cell-based ligand (R1881) displacement assay. The ratio α between the AR-binding potency and the degradation potency are calculated when it is possible.
The experimental protocol is based on reference Gustafson et al. (Angew. Chem. Int. Ed., 54: 9659-9662). HEK293 cells were transiently transfected using Fugene 6 to overexpress wildtype Androgen Receptor. During binding assay, transfected cells were grown in DMEM supplemented with 10% charcoal-stripped FBS. Cells were treated for two hours with the indicated competitor compound in the presence of 0.1 nM ^3H-R1881. Cells were washed in PBS, lysed in 200 ul lysis buffer (2% SDS, 10% Glycerol, 10 mM Tris-HCl [pH 6.8]), and cleared with the addition of 300 ul of 10 mM Tris-HCl (pH 8.0). 300 ul of these lysates were added to 3 mL of Cytoscint (MP Biomedicals), and scintillation counting was performed on a Beckman LS 6000SC instrument. Counts (cpm) were normalized to total protein amount in each sample, as determined via the Pierce BCA Protein Assay Kit (Thermo Scientific) per the manufacturer's instructions.

AR = target: T2, AR (Homo sapiens, UniProt P10275+P40337, T878A); assay: AR degradation in LNCaP cells (androgen receptor ELISA); format: cell-based; settings: for DC50: read-out: AR degradation potency DC50
T2 construct: degradation Dmax of AR in LNCaP cells; endogenous in cells; host or cells: LNCaP
T2 sequence (Q15370 whole entry): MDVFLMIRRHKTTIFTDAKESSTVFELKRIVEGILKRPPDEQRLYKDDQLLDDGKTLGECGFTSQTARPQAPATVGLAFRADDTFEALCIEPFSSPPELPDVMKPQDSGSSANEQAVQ
T2 sequence (P40337 whole entry): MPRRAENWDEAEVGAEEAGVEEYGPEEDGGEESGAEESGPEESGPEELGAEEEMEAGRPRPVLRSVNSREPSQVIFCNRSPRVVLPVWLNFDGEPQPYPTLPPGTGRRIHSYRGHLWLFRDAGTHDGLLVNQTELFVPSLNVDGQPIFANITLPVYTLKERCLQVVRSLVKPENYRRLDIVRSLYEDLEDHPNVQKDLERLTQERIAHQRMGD
T2 sequence (P10275 whole entry T878A): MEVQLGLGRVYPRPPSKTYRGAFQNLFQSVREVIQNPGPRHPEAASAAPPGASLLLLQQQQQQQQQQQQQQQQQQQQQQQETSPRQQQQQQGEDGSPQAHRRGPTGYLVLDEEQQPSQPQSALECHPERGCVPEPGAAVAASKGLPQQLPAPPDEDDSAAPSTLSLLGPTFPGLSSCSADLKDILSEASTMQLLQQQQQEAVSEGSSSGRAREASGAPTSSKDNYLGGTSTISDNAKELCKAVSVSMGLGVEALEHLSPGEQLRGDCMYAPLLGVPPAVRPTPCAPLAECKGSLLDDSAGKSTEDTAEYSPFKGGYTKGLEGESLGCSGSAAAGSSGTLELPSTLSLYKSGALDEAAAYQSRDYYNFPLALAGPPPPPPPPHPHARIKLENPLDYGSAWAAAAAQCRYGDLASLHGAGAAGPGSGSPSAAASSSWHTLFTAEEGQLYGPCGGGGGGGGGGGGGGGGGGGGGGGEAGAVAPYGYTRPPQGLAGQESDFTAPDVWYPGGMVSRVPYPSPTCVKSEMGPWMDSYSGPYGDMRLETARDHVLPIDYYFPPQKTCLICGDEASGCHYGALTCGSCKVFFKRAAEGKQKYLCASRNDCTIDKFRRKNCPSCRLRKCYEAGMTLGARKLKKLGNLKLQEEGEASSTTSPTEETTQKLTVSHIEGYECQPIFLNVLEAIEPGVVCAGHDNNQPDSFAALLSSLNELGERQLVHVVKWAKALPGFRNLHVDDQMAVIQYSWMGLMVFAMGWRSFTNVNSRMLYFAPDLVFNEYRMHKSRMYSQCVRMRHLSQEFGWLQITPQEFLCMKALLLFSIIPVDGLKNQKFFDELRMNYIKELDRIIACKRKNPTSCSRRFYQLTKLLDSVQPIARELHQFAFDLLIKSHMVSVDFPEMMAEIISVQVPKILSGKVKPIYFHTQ
T2 sequence (Q15369 whole entry, further chain): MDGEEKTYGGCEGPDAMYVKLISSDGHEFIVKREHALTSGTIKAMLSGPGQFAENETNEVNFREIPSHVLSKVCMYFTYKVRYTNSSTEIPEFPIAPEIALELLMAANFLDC
Method: as §1
Androgen Receptor ELISA Assay
The protocols used with VCaP cells are described below. The androgen receptor ELISA assay was performed using PathScan AR ELISA (Cell Signaling Catalog #12850) according to the following assay steps: […]

c-Myc expression = assay: c-Myc ELISA assay in 22RV1 cells; format: cell-based, human
Method: It is composed of a BRD4-binding warhead which is connected to a VHL-binding warhead by a linear connector. […] Either the inhibition of BRD4 (by binding and blocking the active site of BRD4) or the degradation of BRD4 leads to the down-regulation of the expression level of a downstream protein c-Myc. […] MD simulation of a ternary system composed of BRD4 bromodomain 1, the ligand L and the complex of VHL with EB and EC in the presence of explicit water was performed.
The connector linking the BRD-4 binding warhead and the cereblon-binding warhead was systematically probed from 2 to 8 atoms. For comparison, the parent inhibitor of BRD4 (compound JQ1) was also prepared. […] The expression level of a downstream protein c-Myc was measured. In this assay, either the inhibition of BRD4 (by binding and blocking the active site of BRD4) or the degradation of BRD4 leads to the down-regulation of the expression level of c-Myc.
The connector linking the BRD4 warhead and the VHL-binding warhead was systematically probed from 5 to 19 atoms. […] The expression level of a downstream protein c-Myc was measured. In this assay, either the inhibition of BRD4 (e.g., by binding and blocking the active site of BRD4) or the degradation of BRD4 results in the down-regulation of the expression level of c-Myc.
c-Myc ELISA Assay Protocol
22RV-1 cells were purchased from ATCC and cultured in RPMI+10% FBS media. Cells were harvested using trypsin (Gibco #25200-114), counted and seeded at 30,000 cells/well at a volume of 75 μL/well in RPMI+10% FBS media in 96-well plates. The cells were dosed with compounds diluted in 0.1% DMSO, incubated for 18h then washed and lysed in 50 uL RIPA buffer (50 mM Tris pH8, 150 mM NaCl, 1% Tx-100, 0.1% SDS, 0.5% sodium deoxycholate) supplemented with protease and phosphatase inhibitors. The lysates were clarified at 4000 rpm at 4° C. for 10 minutes then aliquots were added into a 96-well ELISA plate of Novex Human c-Myc ELISA kit from Life Technologies Catalog #KHO2041. 50 µL of c-Myc Detection antibody was added into every well, the plates incubated at room temperature for 3 hrs, then washed with ELISA wash buffer. 100 μL of the anti-rabbit IgG-HRP secondary antibody was added to each well and incubated at room temperature for 30 minutes. The plates were washed with ELISA wash buffer, 100 μL TMB added to each well, and then monitored every 5 minutes for a color change. 100 μL of stop solution is added and the plates read at 450 nm.

[1] = 22RV1 cells, BRD4-VHL series, Table 3
[2] = 22RV1 cells, BRD4-VHL series, Table 3, read-out: c-Myc expression inhibition IC50
[3] = 22RV1 cells, connector composition changes, Table 4
[4] = 22RV1 cells, connector composition changes, Table 4, read-out: c-Myc expression inhibition IC50

With `Cc1ncsc1-c1ccc(CNC(=O)[C@@H]2C[C@@H](O)CN2C(=O)[C@@H](NC(=O)CCCOc2ccc(N3C(=S)N(c4ccc(C#N)c(C(F)(F)F)c4)C(=O)C3(C)C)cc2)C(C)(C)C)cc1` [Compound 1] the IC50 (Androgen Receptor) was 970 nM, the DC50 (AR; LNCaP cells) was over 3000 nM and the Dmax (AR; LNCaP cells, read-out: maximum AR degradation Dmax) was 35%.

With `Cc1ncsc1-c1ccc(CNC(=O)[C@@H]2C[C@@H](O)CN2C(=O)[C@@H](NC(=O)COCCOc2ccc(N3C(=S)N(c4ccc(C#N)c(C(F)(F)F)c4)C(=O)C3(C)C)cc2)C(C)(C)C)cc1` [Compound 2] the IC50 (Androgen Receptor) was 2140 nM, the “ratio α between AR-binding potency IC50 and degradation potency DC50” value (AR) was under 1 and the “maximum AR degradation Dmax” value (AR; LNCaP cells) was 51%. For the same compound, the DC50 (AR; LNCaP cells) was 1700 nM.

For `Cc1ncsc1-c1ccc(CNC(=O)[C@@H]2C[C@@H](O)CN2C(=O)[C@@H](NC(=O)CCOCCOc2ccc(N3C(=S)N(c4ccc(C#N)c(C(F)(F)F)c4)C(=O)C3(C)C)cc2)C(C)(C)C)cc1` [Compound 3], the “maximum AR degradation Dmax” value (AR; LNCaP cells) was 56%.

With `Cc1ncsc1-c1ccc(CNC(=O)[C@@H]2C[C@@H](O)CN2C(=O)[C@@H](NC(=O)CCOCCCOc2ccc(N3C(=S)N(c4ccc(C#N)c(C(F)(F)F)c4)C(=O)C3(C)C)cc2)C(C)(C)C)cc1` [Compound 4] the “maximum AR degradation Dmax” value (AR; LNCaP cells) was 18% and the DC50 (AR; LNCaP cells) was over 3000 nM.

For `Cc1ncsc1-c1ccc(CNC(=O)[C@@H]2C[C@@H](O)CN2C(=O)[C@@H](NC(=O)COCCOCCCOc2ccc(N3C(=S)N(c4ccc(C#N)c(C(F)(F)F)c4)C(=O)C3(C)C)cc2)C(C)(C)C)cc1` [Compound 6], the “maximum AR degradation Dmax” value (AR; LNCaP cells) was 54% and the DC50 (AR; LNCaP cells) was 72 nM.

With `Cc1ncsc1-c1ccc(CNC(=O)[C@@H]2C[C@@H](O)CN2C(=O)[C@@H](NC(=O)COCCCOCCCOc2ccc(N3C(=S)N(c4ccc(C#N)c(C(F)(F)F)c4)C(=O)C3(C)C)cc2)C(C)(C)C)cc1` [Compound 7] the “maximum AR degradation Dmax” value (AR; LNCaP cells) was 56% and the DC50 (AR; LNCaP cells) was 390 nM.

With `Cc1ncsc1-c1ccc(CNC(=O)[C@@H]2C[C@@H](O)CN2C(=O)[C@@H](NC(=O)COCCCOCCCCCOc2ccc(N3C(=S)N(c4ccc(C#N)c(C(F)(F)F)c4)C(=O)C3(C)C)cc2)C(C)(C)C)cc1` [Compound 9] the IC50 (Androgen Receptor) was 810 nM, the “ratio α between AR-binding potency IC50 and degradation potency DC50” value (AR) was 23.5 and the “maximum AR degradation Dmax” value (AR; LNCaP cells) was 83%. The DC50 (AR; LNCaP cells) was 34.4 nM.

For `Cc1ncsc1-c1ccc(CNC(=O)[C@@H]2C[C@@H](O)CN2C(=O)[C@@H](NC(=O)COCCCCOCCCCCOc2ccc(N3C(=S)N(c4ccc(C#N)c(C(F)(F)F)c4)C(=O)C3(C)C)cc2)C(C)(C)C)cc1` [Compound 10], the “maximum AR degradation Dmax” value (AR; LNCaP cells) was 77% and the DC50 (AR; LNCaP cells) was 60 nM.

For `Cc1ncsc1-c1ccc(CNC(=O)[C@@H]2C[C@@H](O)CN2C(=O)[C@@H](NC(=O)COCCOCCOCCOCCNC(=O)C[C@@H]2N=C(c3ccc(Cl)cc3)c3c(sc(C)c3C)-n3c(C)nnc32)C(C)(C)C)cc1` [Compound 34], the “maximum inhibition Imax” value (c-Myc expression; [1]) was 94% and the IC50 (c-Myc expression; [2]) was 34 nM.

In the case of `Cc1ncsc1-c1ccc(CNC(=O)[C@@H]2C[C@@H](O)CN2C(=O)[C@@H](NC(=O)COCCOCCOCCCCOCCOCCNC(=O)C[C@@H]2N=C(c3ccc(Cl)cc3)c3c(sc(C)c3C)-n3c(C)nnc32)C(C)(C)C)cc1` [Compound 37], the “maximum inhibition Imax” value (c-Myc expression; [1]) is reported as 96.4% and the IC50 (c-Myc expression; [2]) is reported as 202 nM.

With `Cc1ncsc1-c1ccc(CNC(=O)[C@@H]2C[C@@H](O)CN2C(=O)[C@@H](NC(=O)COCCOCCOCCOCCOCCOCCNC(=O)C[C@@H]2N=C(c3ccc(Cl)cc3)c3c(sc(C)c3C)-n3c(C)nnc32)C(C)(C)C)cc1` [Compound 38] the “maximum inhibition Imax” value (c-Myc expression; [1]) was 62.2% and the IC50 (c-Myc expression; [2]) was 707 nM.

`Cc1ncsc1-c1ccc(CNC(=O)[C@@H]2C[C@@H](O)CN2C(=O)[C@@H](NC(=O)CCCCCCCCNC(=O)C[C@@H]2N=C(c3ccc(Cl)cc3)c3c(sc(C)c3C)-n3c(C)nnc32)C(C)(C)C)cc1` [Compound 39] was tested, and the “maximum inhibition Imax” value (c-Myc expression; [3]) was 95.4% and the IC50 (c-Myc expression; [4]) was 10.2 nM.

`Cc1ncsc1-c1ccc(CNC(=O)[C@@H]2C[C@@H](O)CN2C(=O)[C@@H](NC(=O)COCCCSCCNC(=O)C[C@@H]2N=C(c3ccc(Cl)cc3)c3c(sc(C)c3C)-n3c(C)nnc32)C(C)(C)C)cc1` [Compound 40] was tested, and the “maximum inhibition Imax” value (c-Myc expression; [3]) was 99% and the IC50 (c-Myc expression; [4]) was 20.9 nM.

`Cc1ncsc1-c1ccc(CNC(=O)[C@@H]2C[C@@H](O)CN2C(=O)[C@@H](NC(=O)COCCCCCCNC(=O)C[C@@H]2N=C(c3ccc(Cl)cc3)c3c(sc(C)c3C)-n3c(C)nnc32)C(C)(C)C)cc1` [Compound 41] was tested, and the “maximum inhibition Imax” value (c-Myc expression; [3]) was 100% and the IC50 (c-Myc expression; [4]) was 25.7 nM.

`Cc1ncsc1-c1ccc(CNC(=O)[C@@H]2C[C@@H](O)CN2C(=O)[C@@H](NC(=O)COCCCS(=O)(=O)CCNC(=O)C[C@@H]2N=C(c3ccc(Cl)cc3)c3c(sc(C)c3C)-n3c(C)nnc32)C(C)(C)C)cc1` [Compound 42] was tested, and the “maximum inhibition Imax” value (c-Myc expression; [3]) was 88.3% and the IC50 (c-Myc expression; [4]) was 122 nM.

With `Cc1sc2c(c1C)C(c1ccc(Cl)cc1)=N[C@@H](CC(=O)OC(C)(C)C)c1nnc(C)n1-2` [JQ1, reference compound] the “maximum inhibition Imax” value (c-Myc expression; 22RV1 cells, BRD4-cereblon series, Table 2) was 93%, the IC50 (c-Myc expression; Homo sapiens, 22Rv1, read-out: c-Myc expression IC50) was 101 nM and the IC50 (c-Myc expression; Homo sapiens, 22Rv1, read-out: c-Myc expression inhibition IC50) was 101 nM.
